Reference: patent US20110039721A1, “METHOD FOR PREDICTION ABOUT CARCINOGENICITY OF SUBSTANCE IN RODENT” (Chemicals Evaluation and Research Institute, priority 2007, published 2011)

Tested on: mRNA expressed from the genes (A) to (D) in rat liver
Test: Behavior of genes (mRNA expression level, oligo-DNA microarray) in rat liver after 28-day oral administration
Format: in vivo
Conditions: for Behavior of gene caused by administration of chemical substance, Gene No. 4846 / Behavior of gene caused by administration of chemical substance, Gene No. 2026 / Behavior of gene caused by administration of chemical substance, Gene No. 4218 / Behavior of gene caused by administration of chemical substance, Gene No. 6182 / Behavior of gene caused by administration of chemical substance, Gene No. 5600: gene group (A); for Behavior of gene caused by administration of chemical substance, Gene No. 4846: Unigene No. Rn.144554; for Behavior of gene caused by administration of chemical substance, Gene No. 2026 / Behavior of gene caused by administration of chemical substance, Gene No. 4218: Unigene No. Rn.167075; for Behavior of gene caused by administration of chemical substance, Gene No. 6182: Unigene No. Rn.5834; for Behavior of gene caused by administration of chemical substance, Gene No. 5600: Unigene No. Rn.9836; for Behavior of gene caused by administration of chemical substance, Gene No. 1494 / Behavior of gene caused by administration of chemical substance, Gene No. 2045 / Behavior of gene caused by administration of chemical substance, Gene No. 2203: gene group (B); for Behavior of gene caused by administration of chemical substance, Gene No. 1494: Unigene No. Rn.1430; for Behavior of gene caused by administration of chemical substance, Gene No. 2045: Unigene No. Rn.19329; for Behavior of gene caused by administration of chemical substance, Gene No. 2203: Unigene No. Rn.21240; for Behavior of gene caused by administration of chemical substance, Gene No. 533 / Behavior of gene caused by administration of chemical substance, Gene No. 725 / Behavior of gene caused by administration of chemical substance, Gene No. 1163 / Behavior of gene caused by administration of chemical substance, Gene No. 4973 / Behavior of gene caused by administration of chemical substance, Gene No. 4095 / Behavior of gene caused by administration of chemical substance, Gene No. 1334 / Behavior of gene caused by administration of chemical substance, Gene No. 6620 / Behavior of gene caused by administration of chemical substance, Gene No. 6303 / Behavior of gene caused by administration of chemical substance, Gene No. 5878 / Behavior of gene caused by administration of chemical substance, Gene No. 1131 / Behavior of gene caused by administration of chemical substance, Gene No. 1562 / Behavior of gene caused by administration of chemical substance, Gene No. 1741 / Behavior of gene caused by administration of chemical substance, Gene No. 893 / Behavior of gene caused by administration of chemical substance, Gene No. 6026 / Behavior of gene caused by administration of chemical substance, Gene No. 154 / Behavior of gene caused by administration of chemical substance, Gene No. 1993 / Behavior of gene caused by administration of chemical substance, Gene No. 813 / Behavior of gene caused by administration of chemical substance, Gene No. 2494 / Behavior of gene caused by administration of chemical substance, Gene No. 2546 / Behavior of gene caused by administration of chemical substance, Gene No. 3776 / Behavior of gene caused by administration of chemical substance, Gene No. 3929 / Behavior of gene caused by administration of chemical substance, Gene No. 1119 / Behavior of gene caused by administration of chemical substance, Gene No. 6742 / Behavior of gene caused by administration of chemical substance, Gene No. 5634: gene group (C); for Behavior of gene caused by administration of chemical substance, Gene No. 533: Unigene No. Rn.106184; for Behavior of gene caused by administration of chemical substance, Gene No. 725: Unigene No. Rn.108075; for Behavior of gene caused by administration of chemical substance, Gene No. 1163: Unigene No. Rn.11766; for Behavior of gene caused by administration of chemical substance, Gene No. 4973: Unigene No. Rn.118529; for Behavior of gene caused by administration of chemical substance, Gene No. 4095: Unigene No. Rn.119024; for Behavior of gene caused by administration of chemical substance, Gene No. 1334 / Behavior of gene caused by administration of chemical substance, Gene No. 6620: Unigene No. Rn.120914; for Behavior of gene caused by administration of chemical substance, Gene No. 6303: Unigene No. Rn.123063; for Behavior of gene caused by administration of chemical substance, Gene No. 5878: Unigene No. Rn.143213; for Behavior of gene caused by administration of chemical substance, Gene No. 1131: Unigene No. Rn.144946; for Behavior of gene caused by administration of chemical substance, Gene No. 1562: Unigene No. Rn.14744; for Behavior of gene caused by administration of chemical substance, Gene No. 1741: Unigene No. Rn.1647; for Behavior of gene caused by administration of chemical substance, Gene No. 893: Unigene No. Rn.164817; for Behavior of gene caused by administration of chemical substance, Gene No. 6026: Unigene No. Rn.167685; for Behavior of gene caused by administration of chemical substance, Gene No. 154: Unigene No. Rn.185941; for Behavior of gene caused by administration of chemical substance, Gene No. 1993: Unigene No. Rn.18728; for Behavior of gene caused by administration of chemical substance, Gene No. 813: Unigene No. Rn.201760; for Behavior of gene caused by administration of chemical substance, Gene No. 2494: Unigene No. Rn.23969; for Behavior of gene caused by administration of chemical substance, Gene No. 2546: Unigene No. Rn.24561; for Behavior of gene caused by administration of chemical substance, Gene No. 3776: Unigene No. Rn.43232; for Behavior of gene caused by administration of chemical substance, Gene No. 3929: Unigene No. Rn.4620; for Behavior of gene caused by administration of chemical substance, Gene No. 1119: Unigene No. Rn.9757; for Behavior of gene caused by administration of chemical substance, Gene No. 6742: Unigene No. Rn.9779; for Behavior of gene caused by administration of chemical substance, Gene No. 5634: Unigene No. Rn.9862; for Behavior of gene caused by administration of chemical substance, Gene No. 5726: gene group (D), Unigene No. Rn.9939
Experimental: A test solution was prepared by dissolving each of the carcinogens and the non-carcinogens shown in Tables 2 to 6 in the corresponding solvent shown in Tables 2 to 6. Each of the thus prepared test solutions and the solvents used for the preparation was administered by oral gavage to rats in each group. As the rats, male rats (F344 SPF rats) at 5 weeks of age obtained from Charles River Laboratories Japan, Inc. were used. The animals were divided into groups, each containing four individuals. The volume of the solvent administered to the vehicle control group was set to the same volume as that of the test solution administered to the carcinogen administration group or the non-carcinogen administration group. The administration of the test solution or the solvent was performed once daily for 28 days. Apiece was excised from the liver of each of the rats after a lapse of 28 days from the initiation of the administration, and the total RNA was extracted and purified.
The expression level of mRNA was compared between each of the chemical substance administration groups and the corresponding vehicle control group, and genes that satisfy the requirements described in (A) to (D) were selected, respectively.
The case where the expression level of mRNA in the carcinogen administration group or the non-carcinogen administration group is 1.5 times or more or 1/1.5 or less of the expression level of the corresponding mRNA expressed in the control group was determined to be significant. In this connection, the determination as to whether or not the change is significant was performed by taking into consideration the direction of increase or decrease in the expression level. In the case where the direction of increase or decrease is different as compared with the case where another carcinogen was administered, the change was determined to be not significant.

c1ccc2c(c1)cc1ccc3cccc4ccc2c1c34 [TS063, Benzo[a]pyrene]
+: Behavior of gene caused by administration of chemical substance, Gene No. 2026 (mRNA vs vehicle control group) | Behavior of gene caused by administration of chemical substance, Gene No. 6182 (mRNA vs vehicle control group) | Behavior of gene caused by administration of chemical substance, Gene No. 2045 (mRNA vs vehicle control group) | Behavior of gene caused by administration of chemical substance, Gene No. 2203 (mRNA vs vehicle control group) | Behavior of gene caused by administration of chemical substance, Gene No. 5634 (mRNA vs vehicle control group)
−: Behavior of gene caused by administration of chemical substance, Gene No. 4846 (mRNA vs vehicle control group) | Behavior of gene caused by administration of chemical substance, Gene No. 4218 (mRNA vs vehicle control group) | Behavior of gene caused by administration of chemical substance, Gene No. 5600 (mRNA vs vehicle control group) | Behavior of gene caused by administration of chemical substance, Gene No. 1494 (mRNA vs vehicle control group) | Behavior of gene caused by administration of chemical substance, Gene No. 533 (mRNA vs vehicle control group) | Behavior of gene caused by administration of chemical substance, Gene No. 725 (mRNA vs vehicle control group) | Behavior of gene caused by administration of chemical substance, Gene No. 1163 (mRNA vs vehicle control group) | Behavior of gene caused by administration of chemical substance, Gene No. 4973 (mRNA vs vehicle control group) | Behavior of gene caused by administration of chemical substance, Gene No. 4095 (mRNA vs vehicle control group) | Behavior of gene caused by administration of chemical substance, Gene No. 1334 (mRNA vs vehicle control group) | Behavior of gene caused by administration of chemical substance, Gene No. 6620 (mRNA vs vehicle control group) | Behavior of gene caused by administration of chemical substance, Gene No. 6303 (mRNA vs vehicle control group) | Behavior of gene caused by administration of chemical substance, Gene No. 5878 (mRNA vs vehicle control group) | Behavior of gene caused by administration of chemical substance, Gene No. 1131 (mRNA vs vehicle control group) | Behavior of gene caused by administration of chemical substance, Gene No. 1562 (mRNA vs vehicle control group) | Behavior of gene caused by administration of chemical substance, Gene No. 1741 (mRNA vs vehicle control group) | Behavior of gene caused by administration of chemical substance, Gene No. 893 (mRNA vs vehicle control group) | Behavior of gene caused by administration of chemical substance, Gene No. 6026 (mRNA vs vehicle control group) | Behavior of gene caused by administration of chemical substance, Gene No. 154 (mRNA vs vehicle control group) | Behavior of gene caused by administration of chemical substance, Gene No. 1993 (mRNA vs vehicle control group) | Behavior of gene caused by administration of chemical substance, Gene No. 813 (mRNA vs vehicle control group) | Behavior of gene caused by administration of chemical substance, Gene No. 2494 (mRNA vs vehicle control group) | Behavior of gene caused by administration of chemical substance, Gene No. 2546 (mRNA vs vehicle control group) | Behavior of gene caused by administration of chemical substance, Gene No. 3776 (mRNA vs vehicle control group) | Behavior of gene caused by administration of chemical substance, Gene No. 3929 (mRNA vs vehicle control group) | Behavior of gene caused by administration of chemical substance, Gene No. 1119 (mRNA vs vehicle control group) | Behavior of gene caused by administration of chemical substance, Gene No. 6742 (mRNA vs vehicle control group) | Behavior of gene caused by administration of chemical substance, Gene No. 5726 (mRNA vs vehicle control group)

COc1ccc2c(c1)c(CC(=O)O)c(C)n2C(=O)c1ccc(Cl)cc1 [TS085, Indomethacin]
−: Behavior of gene caused by administration of chemical substance, Gene No. 4846 | Behavior of gene caused by administration of chemical substance, Gene No. 2026 | Behavior of gene caused by administration of chemical substance, Gene No. 4218 | Behavior of gene caused by administration of chemical substance, Gene No. 6182 | Behavior of gene caused by administration of chemical substance, Gene No. 5600 | Behavior of gene caused by administration of chemical substance, Gene No. 1494 | Behavior of gene caused by administration of chemical substance, Gene No. 2045 | Behavior of gene caused by administration of chemical substance, Gene No. 2203 | Behavior of gene caused by administration of chemical substance, Gene No. 533 | Behavior of gene caused by administration of chemical substance, Gene No. 725 | Behavior of gene caused by administration of chemical substance, Gene No. 1163 | Behavior of gene caused by administration of chemical substance, Gene No. 4973 | Behavior of gene caused by administration of chemical substance, Gene No. 4095 | Behavior of gene caused by administration of chemical substance, Gene No. 1334 | Behavior of gene caused by administration of chemical substance, Gene No. 6620 | Behavior of gene caused by administration of chemical substance, Gene No. 6303 | Behavior of gene caused by administration of chemical substance, Gene No. 5878 | Behavior of gene caused by administration of chemical substance, Gene No. 1131 | Behavior of gene caused by administration of chemical substance, Gene No. 1562 | Behavior of gene caused by administration of chemical substance, Gene No. 1741 | Behavior of gene caused by administration of chemical substance, Gene No. 893 | Behavior of gene caused by administration of chemical substance, Gene No. 6026 | Behavior of gene caused by administration of chemical substance, Gene No. 154 | Behavior of gene caused by administration of chemical substance, Gene No. 1993 | Behavior of gene caused by administration of chemical substance, Gene No. 813 | Behavior of gene caused by administration of chemical substance, Gene No. 2494 | Behavior of gene caused by administration of chemical substance, Gene No. 2546 | Behavior of gene caused by administration of chemical substance, Gene No. 3776 | Behavior of gene caused by administration of chemical substance, Gene No. 3929 | Behavior of gene caused by administration of chemical substance, Gene No. 1119 | Behavior of gene caused by administration of chemical substance, Gene No. 6742 | Behavior of gene caused by administration of chemical substance, Gene No. 5634 | Behavior of gene caused by administration of chemical substance, Gene No. 5726
